Results as given in patent US6218384A, “3-Oxo-pyrido(1,2-a)benzimidazole-4-carboxyl and 4-oxo-azepino(1,2-a)benzimidazole-5-carboxyl derivatives useful in treating central nervous system disorders” (Ortho-McNeil Pharmaceutical, Inc., priority 1997, dated 2001).
pIC50: −log10 of the molar value. Like-named read-outs stand apart in the source and are kept apart here.

Columns and labels:
[1] = Suppression of anxiety (punished licking, conflict test) in the adult male rat; format: in vivo, male rats
Description: The anxiolytic activity of selected compounds of the invention was assessed by determining their ability to release (disinhibit) behavior that had been suppressed by punishment (Vogel, J. R. et al. Psychopharmacology 1971, 21, 1). Male rats were deprived of water for 48 hours and were deprived of food for 24 hours prior to testing. After the first 24 hours of water deprivation, they were placed in the conflict chamber for a training period; wherein, they were allowed 200 unpunished licks from a bottle containing tap water. The experiment was run the next day. At the expected time of peak activity, the animals were placed in the chamber and allowed access to tap water. […] Their first lick initiates a 3-min test session. Subsequently,every 20th lick was punished by a 0.2-s shock delivered via the stainless-steel drinking-tube. Vehicle-treated control animals generally were willing to accept a median number of 3 to 8 shocks per test session. […] The Wilcoxon rank-sum test (Mann-WhitneyU-test) was used to test for an increase (p<0.05, 1-tailed) in the median number of shocks in drug-treated groups, compared to a concurrently run vehicle-treated group. The biological assay is considered to be valid if the effects of a known anxiolytic (positive control) are detected, within the same experiment. A compound was considered active if there is a significant difference in the median number of shocks tolerated between the drug-treated group and the control group. The MED was defined as the minimum dose of the drug-treatment as analyzed using the Wilcoxon rank-sum test (SAS; Statistical Analysis System, version 5.16). If the MED value is greater than 10, an active dose of the compound being tested had not been determined.

[2] = target: benzodiazepine site of the GABA-A receptor; test: Benzodiazepine Receptor Binding Assay (inhibition of 3H-flunitrazepam binding); conditions: ca. 3 nM 3H-flunitrazepam
[3] = Suppression of metrazol-induced convulsions; format: in vivo, male CD1 mice; conditions: mice; for ED50: Mus musculus, 0.5 h; for Metrazol (ip) ED50: 30 min
Description: Selected compounds of the invention were tested for their ability to reduce metrazol-induced convulsions in mice (Swinyard, E. A. J. Am. Pharm Assoc. 1949, 38, 201). Male CD1 mice, were fasted at least 16 hours, were divided into equal groups and test compounds or vehicle were administered parenterally. Water was not withheld except during the period of observations. At the time of suspected peak activity, anti-pentylenetetrazol (anti-metrazol) activity was evaluated by the subcutaneous administration of the CD90 dose of metrazol (the dose of metrazol was determined from the dose-response curve producing clonic convulsions in 90% of animals that received the corresponding vehicle for this experiment). Metrazol was dissolved in 0.9% sodium chloride solution, and its dose volume was 10 ml/kg. Animals were housed individually for observation of clonic convulsions, tonic convulsions and death for a period of 30 min. Test compounds that blocked the clonic seizure component of the convulsion in at least 50% of the animals were considered active. The biological assay was considered to be valid if the effects of a known anticonvulsant (positive control) were detected, within the same experiment. Activity was reported as percent reduction of clonic convulsions from the vehicle group. The ED50 values of active compounds were calculated by the method of probits (Finney, D. J. 1971. Probit Analysis. London: Cambridge University Press) and are listed in Tables 1 to 5.

[4] = Table 1, ip, minimum effective dose, >10 = active dose not determined, read-out: Conflict (ip) MED
[5] = Table 1, 25° C., 10-20 min, >10,000 = not active
[6] = Table 1, ip, clonic convulsions after sc CD90 metrazol, >30 = active dose not determined, read-out: Metrazol (ip) ED50
[7] = Table 3, minimum effective dose, read-out: Conflict MED
[8] = Table 3, parenteral, clonic convulsions, read-out: Antimetrazol ED50
[9] = Table 4, minimum effective dose, read-out: Conflict MED
[10] = Table 4, parenteral, clonic convulsions, read-out: Antimetrazol ED50
[11] = Table 5, minimum effective dose, read-out: Conflict MED
[12] = Table 5, parenteral, clonic convulsions, read-out: Antimetrazol ED50
[13] = Table 1, ip, minimum effective dose, >10 = active dose not determined
[14] = Table 1, ip, clonic convulsions after sc CD90 metrazol, >30 = active dose not determined

`CCCCNC(=O)C1=C2Nc3ccccc3N2CCC1=O` [compound 38] gave a minimal effective dose [1, 4] greater than 10 mg/kg, a pIC50 [2, 5] of 7.27 and an ED50 [3, 6] greater than 10 mg/kg.
Work on `CN(C)c1ccccc1NC(=O)C1=C2Nc3ccccc3N2CCC1=O` [compound 87] yielded a minimal effective dose [1, 4] of 10 mg/kg, a pIC50 [2, 5] of 5.00 and an ED50 [3, 6] of 10 mg/kg.
`CCCN1C2=C(C(=O)Nc3c(F)cc(F)cc3F)C(=O)CCN2c2ccccc21` [compound 137] showed a minimal effective dose [1, 7] greater than 10 mg/kg, a pIC50 ([2]; Table 3) greater than 7.00 and an ED50 [3, 8] of 1 mg/kg.
Molecule `Cc1cc(N(C)C)ccc1NC(=O)C1=C2Nc3ccccc3N2CCC1=O` [compound 85] has a minimal effective dose [1, 4] greater than 10 mg/kg, a pIC50 [2, 5] of 5.40 and an ED50 [3, 6] of 10 mg/kg.
`O=C(Nc1ccncc1)c1c(=O)ccn2c1[nH]c1ccccc12` [compound 140] showed a minimal effective dose [1, 9] greater than 10 mg/kg, a pIC50 ([2]; Table 4) of 6.59 and an ED50 [3, 10] greater than 10 mg/kg.
For `O=C1CCCN2C(=C1C(=O)Nc1ccncc1)Nc1ccccc12` [compound 152], the minimal effective dose [1, 11] was less than 10 mg/kg, the pIC50 ([2]; Table 5) was 5.84 and the ED50 [3, 12] was greater than 10 mg/kg.
`O=C1CCN2C(=C1C(=O)Nc1c(F)cccc1F)Nc1cc(Cl)ccc12` [compound 114] showed a minimal effective dose [1, 4] of 3 mg/kg, a pIC50 [2, 5] of 8.22 and an ED50 [3, 6] of 1 mg/kg.
With `O=C1CCN2C(=C1C(=O)Nc1ccccc1)Nc1ccc(Cl)cc12` [compound 84] the minimal effective dose [1, 4] was greater than 10 mg/kg, the pIC50 [2, 5] was 6.77 and the ED50 [3, 6] was greater than 10 mg/kg.
`O=C1CCN2C(=C1C(=O)Nc1ccccc1)N(Cc1ccccc1)c1ccccc12` [compound 127] showed a minimal effective dose [1, 7] of 10 mg/kg, a pIC50 ([2]; Table 3) of 7.92 and an ED50 [3, 8] of 3 mg/kg.
With “Phenyl-1,2-dihydro-3-hydroxypyrido(1,2-a)benzimidazole-4-carboxthiolate [CP 119]” the “Conflict (ip) MED” value [1, 13] was 10 mg/kg, the pIC50 [2, 5] was 7.37 and the “Metrazol (ip) ED50” value [3, 14] was 30 mg/kg.
`O=C(Nc1ccccc1F)c1c(=O)ccn2c1[nH]c1ccccc12` [compound 139] gave a minimal effective dose [1, 9] of 0.1 mg/kg, a pIC50 ([2]; Table 4) of 9.64 and an ED50 [3, 10] of 0.3 mg/kg.
Molecule `CN(C)c1ccc(NC(=O)C2=C3N(C)c4ccccc4N3CCC2=O)cc1` [compound 124] has a minimal effective dose [1, 7] of 10 mg/kg, a pIC50 ([2]; Table 3) of 7.54 and an ED50 [3, 8] of 1 to 3 mg/kg.
Work on `Cc1cccc2c1NC1=C(C(=O)Nc3ccccc3)C(=O)CCN12` [compound 89] yielded a minimal effective dose [1, 4] greater than 10 mg/kg, a pIC50 [2, 5] of 8.00 and an ED50 [3, 6] of 1 mg/kg.
For `O=C1CCN2C(=C1C(=O)Nc1ccc3cn[nH]c3c1)Nc1ccccc12` [compound 48], the minimal effective dose [1, 4] was 10 mg/kg, the pIC50 [2, 5] was 6.46 and the ED50 [3, 6] was greater than 30 mg/kg.
With “N-(2,6-Difluorophenyl)-3-hydroxypyrido(1,2-a)benzimidazole-4-carboxamide [CP 141]” the “Conflict (ip) MED” value [1, 13] was 10 mg/kg, the pIC50 [2, 5] was 6.85 and the “Metrazol (ip) ED50” value [3, 14] was 10 mg/kg.
Work on `CCCN1C2=C(C(=O)Nc3ccc(F)cc3F)C(=O)CCN2c2ccccc21` [compound 131] yielded a minimal effective dose [1, 7] of less than 1 mg/kg, a pIC50 ([2]; Table 3) of 8.59 and an ED50 [3, 8] of 0.3 mg/kg.
Molecule `CCN1C2=C(C(=O)Nc3ccccc3F)C(=O)CCN2c2ccccc21` [compound 123] has a minimal effective dose [1, 7] of 0.3 mg/kg, a pIC50 ([2]; Table 3) of 8.68 and an ED50 [3, 8] of 0.01 mg/kg.
Molecule `O=C1CCN2C(=C1C(=O)NCc1ccncc1)Nc1ccccc12` [compound 59] has a minimal effective dose [1, 4] greater than 10 mg/kg, a pIC50 [2, 5] of 7.19 and an ED50 [3, 6] greater than 10 mg/kg.
`O=C1CCN2C(=C1C(=O)Nc1ccc3[nH]ccc3c1)Nc1ccccc12` [compound 30] showed a minimal effective dose [1, 4] greater than 10 mg/kg, a pIC50 [2, 5] of 6.28 and an ED50 [3, 6] greater than 30 mg/kg.
For `O=C1CCN2C(=C1C(=O)Sc1ccccc1)Nc1ccccc12` [compound 119], the minimal effective dose ([1]; Table 2, ip, minimum effective dose, read-out: Conflict (ip) MED) was greater than 10 mg/kg, the pIC50 ([2]; Table 2) was 7.54 and the ED50 ([3]; Table 2, ip, clonic convulsions, read-out: Antimetrazol (ip) ED50) was greater than 30 mg/kg.
`O=C1CCN2C(=C1C(=O)Nc1ccccc1F)Nc1cc(Cl)ccc12` [compound 113] showed a minimal effective dose [1, 4] of less than 10 mg/kg, a pIC50 [2, 5] of 8.30 and an ED50 [3, 6] of 1 mg/kg.
With `CN1C2=C(C(=O)Nc3ccccc3)C(=O)CCCN2c2ccccc21` [compound 144] the minimal effective dose [1, 11] was greater than 10 mg/kg, the pIC50 ([2]; Table 5) was 7.55 and the ED50 [3, 12] was greater than 10 mg/kg.
